Data published in PubChem BioAssay (NCI).
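Assay format: 96-well plates, 48-hour exposure. The concentration for 50% growth inhibition is given as GI50. At the TGI there is no net growth.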

What was measured:
Test in all cases: growth of human tumour cells (NCI), 48 h
[1] = tested on: SK-MEL-5 melanoma
[2] = tested on: SF-295 CNS
[3] = tested on: TK-10 renal
[4] = tested on: NCI-H23 lung
[5] = tested on: SF-268 CNS
[6] = tested on: CAKI-1 renal
[7] = tested on: CCRF-CEM leukemia
[8] = tested on: A549 NSCLC
[9] = tested on: K-562 leukemia
[10] = tested on: SW-620 colon

Cc1ccc(S(=O)(=O)SCc2ccccc2)cc1
TGI [1]: 54.5 µM
TGI [2]: > 89.7 µM
TGI [3]: > 100 µM
TGI [4]: 36.2 µM
TGI [5]: > 85.7 µM
TGI [6]: > 75.2 µM
TGI [7]: 7.25 µM
TGI [8]: > 100 µM
TGI [9]: 27.3 µM
TGI [10]: 14.7 µM

Cc1ccc2c(CC(=O)O)cc(=O)oc2c1
TGI [1]: > 100 µM
TGI [2]: > 100 µM
TGI [3]: > 100 µM
TGI [4]: > 100 µM
TGI [5]: > 100 µM
TGI [6]: > 100 µM
TGI [7]: > 100 µM
TGI [8]: > 100 µM
TGI [9]: > 100 µM
TGI [10]: > 100 µM

Clc1ccc(C2=NOC3C4CCC(C4)C23)cc1 (stereo not given)
TGI [1]: > 100 µM
TGI [2]: > 100 µM
TGI [3]: > 100 µM
TGI [4]: > 100 µM
TGI [5]: > 100 µM
TGI [6]: > 100 µM
TGI [7]: > 100 µM
TGI [8]: > 100 µM
TGI [9]: > 100 µM
TGI [10]: > 100 µM

CCCC#CCOC(=O)c1cc([N+](=O)[O-])cc([N+](=O)[O-])c1
TGI [1]: > 100 µM
TGI [2]: > 100 µM
TGI [3]: > 100 µM
TGI [4]: > 100 µM
TGI [5]: > 100 µM
TGI [6]: > 100 µM
TGI [7]: > 100 µM
TGI [8]: > 100 µM
TGI [9]: > 100 µM
TGI [10]: > 100 µM

CCCCCSC1C2C(=O)C(Br)=CC13CCNc1c(O)c4c5c(c13)=[N+]2CCC=5C=N4 (stereo not given)
GI50 [1]: 1.85 µM
TGI [1]: 3.96 µM
GI50 [2]: 3.89 µM
TGI [2]: 9.61 µM
GI50 [3]: 2.98 µM
TGI [3]: 5.34 µM
GI50 [4]: 1.33 µM
TGI [4]: 6.21 µM
GI50 [5]: 2.1 µM
TGI [5]: 5.34 µM
GI50 [6]: 2.47 µM
TGI [6]: 4.79 µM
GI50 [7]: 1.01 µM
TGI [7]: 11.6 µM
GI50 [8]: 2.88 µM
TGI [8]: 5.8 µM
GI50 [9]: 2.62 µM
TGI [9]: 12.2 µM
GI50 [10]: 0.545 µM
TGI [10]: 1.55 µM

Brc1ccc(C2SCc3nc4ccccc4n32)cc1 (stereo not given)
TGI [1]: 12.5 µM
TGI [2]: 24.8 µM
TGI [3]: 29.1 µM
TGI [4]: 15.3 µM
TGI [5]: 32.9 µM
TGI [6]: 43 µM
TGI [7]: > 100 µM
TGI [8]: > 100 µM
TGI [9]: > 100 µM
TGI [10]: 29.2 µM

O=C(CC1C(=O)Nc2ccccc2S1(=O)=O)Nc1cccc(Cl)c1 (stereo not given)
TGI [1]: 35.8 µM
TGI [2]: 54.3 µM
TGI [3]: 46.6 µM
TGI [4]: 37.9 µM
TGI [5]: 30.1 µM
TGI [6]: 41.2 µM
TGI [7]: 47.2 µM
TGI [8]: 40.8 µM
TGI [9]: 38.4 µM
TGI [10]: 31.6 µM

O=Nc1c(O)c2ccccc2c2ccccc12
GI50 [1]: 0.56 µM
TGI [1]: 1.77 µM
GI50 [2]: 1.64 µM
TGI [2]: 3.5 µM
GI50 [3]: 2.7 µM
TGI [3]: 7.9 µM
GI50 [4]: 0.464 µM
TGI [4]: 3.86 µM
GI50 [5]: 1.43 µM
TGI [5]: 3.75 µM
GI50 [6]: 2.95 µM
TGI [6]: 9 µM
GI50 [7]: 1.25 µM
TGI [7]: > 100 µM
GI50 [8]: 1.63 µM
TGI [8]: 3.13 µM
GI50 [9]: 0.505 µM
TGI [9]: > 100 µM
GI50 [10]: 1.2 µM
TGI [10]: 3.19 µM

Oc1c2c(c(O)c3ccccc13)C1(N=N2)c2ccccc2Oc2ccccc21
TGI [1]: 27.2 µM
TGI [2]: 33.3 µM
TGI [3]: 23 µM
TGI [4]: > 100 µM
TGI [5]: 25.5 µM
TGI [6]: 26.5 µM
TGI [7]: 29.9 µM
TGI [8]: 66.5 µM
TGI [9]: > 100 µM
TGI [10]: 18.1 µM

CC(=O)c1ccc2c(c1)N(CCCN(C)C)c1ccccc1S2
GI50 [1]: 13.2 µM
TGI [1]: 26.2 µM
GI50 [2]: 11.9 µM
TGI [2]: 25.5 µM
GI50 [3]: 14.7 µM
TGI [3]: 29.5 µM
GI50 [4]: 17.1 µM
TGI [4]: 44.4 µM
GI50 [5]: 13.5 µM
TGI [5]: 29.6 µM
GI50 [6]: 12.6 µM
TGI [6]: 26.4 µM
GI50 [7]: 18.5 µM
TGI [7]: 47.3 µM
GI50 [8]: 17.7 µM
TGI [8]: 34.2 µM
GI50 [9]: 15.9 µM
TGI [9]: 83.7 µM
GI50 [10]: 16.5 µM
TGI [10]: 31.8 µM

Cc1cc(O)cc(C)c1/C=C/c1cncc(C(=O)OC(C)(C)C)c1
GI50 [1]: 10.2 µM
TGI [1]: > 25 µM
GI50 [2]: 19.8 µM
TGI [2]: > 25 µM
GI50 [3]: > 23.5 µM
TGI [3]: > 25 µM
GI50 [4]: > 20 µM
TGI [4]: > 25 µM
GI50 [5]: 20.7 µM
TGI [5]: > 25 µM
GI50 [6]: 12.3 µM
TGI [6]: > 25 µM
GI50 [7]: 3.13 µM
TGI [7]: > 25 µM
GI50 [8]: 9.23 µM
TGI [8]: > 25 µM
GI50 [9]: 11.6 µM
TGI [9]: > 25 µM
GI50 [10]: 20.2 µM
TGI [10]: > 25 µM

COC1=CC(=O)NCCN1
TGI [1]: > 100 µM
TGI [2]: > 100 µM
TGI [3]: > 100 µM
TGI [4]: > 100 µM
TGI [5]: > 100 µM
TGI [6]: > 100 µM
TGI [7]: > 100 µM
TGI [8]: > 100 µM
TGI [9]: > 100 µM
TGI [10]: 50.9 µM

CC1(C)CC(=O)c2c(ccc(C(=O)C[C@@H](N)CO)c2N)O1
GI50 [1]: 1.37 µM
TGI [1]: > 43.9 µM
GI50 [2]: 1.29 µM
TGI [2]: > 54.9 µM
GI50 [3]: 9.41 µM
TGI [3]: 46.8 µM
GI50 [4]: 1.17 µM
TGI [4]: > 100 µM
GI50 [5]: 0.667 µM
TGI [5]: > 89.5 µM
GI50 [6]: 0.564 µM
TGI [6]: 23.7 µM
GI50 [7]: 0.556 µM
TGI [7]: > 60.2 µM
GI50 [8]: 1.42 µM
TGI [8]: > 100 µM
GI50 [9]: 0.531 µM
TGI [9]: > 100 µM
GI50 [10]: 0.234 µM
TGI [10]: 12.7 µM

CN(C)c1ccc(C(=C2C=CC(=[N+](C)C)C=C2)c2ccccc2Cl)cc1
GI50 [1]: 0.301 µM
TGI [1]: 1.05 µM
GI50 [2]: 0.0894 µM
TGI [2]: 0.401 µM
GI50 [3]: 0.345 µM
TGI [3]: 1.41 µM
GI50 [4]: 0.282 µM
TGI [4]: 1.28 µM
GI50 [5]: 0.379 µM
TGI [5]: 1.41 µM
GI50 [6]: 0.455 µM
TGI [6]: 2.76 µM
GI50 [7]: 0.402 µM
TGI [7]: 5.06 µM
GI50 [8]: 0.248 µM
TGI [8]: 4.24 µM
GI50 [9]: 0.244 µM
TGI [9]: 3.79 µM
GI50 [10]: 0.288 µM
TGI [10]: 1.19 µM
